Laboratory results from patent US20100028879A1, “Modulators of HSD17b7 for treating acne or hyperseborrhea” (GALDERMA RESEARCH & DEVELOPMENT, priority 2006, published 2010).
Where two headings read alike, the source gives them in different places.

Tested on: HSD17B7 gene
Details: gonadectomized mice, short-term treatment
Description: The points Veh-24h-a and Veh-24h-b show the level of expression of HSD17B7 of gonadectomized mice untreated with DHT.
The expression of the genes was analyzed on an Affymetrix station (microfluidic model; hybridization oven; scanner; computer) following the protocols provided by the company. Briefly, the total RNA isolated from the tissues was transcribed to cDNA. From the double-stranded cDNA, a cRNA labeled with biotin was synthesized using T7 polymerase and a precursor NTP conjugated to biotin. The cRNAs were then fragmented to small sized fragments. […] The Affymetrix chip is hybridized with the biotinylated cRNA, rinsed and then fluorescence labeled using a fluorophore conjugated to streptavidin. After washings, the chip is scanned and the results are calculated using the MAS5 software provided by Affymetrix. An expression value is obtained for each gene as well as the indication of the significance of the value obtained.
B. Male mice were gonadectomized and were then treated with the vehicle or DHT. The preputial glands were removed for a period ranging up to 4 days (androgenic treatment alone—observation of a short-term kinetics). The RNA was isolated and the expression of the genes was analyzed by the Affymetrix technique using two different probe sets: 1417871_at (FIGS. 2A and 2C) and 1448865_at (FIGS. 2B and 2D).

C[C@]12CCC(=O)C[C@@H]1CC[C@@H]1[C@@H]2CC[C@]2(C)[C@@H](O)CC[C@@H]12 [DHT, Dihydrotestosterone]
mRNA for HSD17B7 in the mouse preputial gland (kinetic study 15 minutes to 96 hours, effect visible at 24 and 96 hours, FIGS. 2A, 2B): moderately induced
mRNA for HSD17B7 in the mouse preputial gland (kinetic study 1 hour to 24 hours, effect starting at 12 hours, well visible at 18 and 24 hours, FIGS. 2C, 2D): induced
